Results as given in the supplement of paper PMC10307832.

Tests used:
Assay in all cases: relative viability (nuclei count vs DMSO), 5 days (fraction); higher = more cells survive
[1] = compound: C1=CC2=NC=CN=C2C=C1/C=C/3\C(=O)NC(=O)S3 + Cc1cc(Nc2cc(N3CCN(C)CC3)nc(Sc3ccc(NC(=O)C4CC4)cc3)n2)n[nH]1 [Tozasertib] (partner 0.1 µM)
How it was run: (§1)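 The day after seeding in 1536-well plates, lung cancer cell lines were treated by pin tool with a single drug, or with a fixed anchor-drug dose together with five library-drug doses (not always all listed) in √10 steps. After 5 days, a combined fix-and-stain solution (final 0.05% Triton X-100, 1% formaldehyde, 1 ug/ml Hoechst) was added. Nuclei counted on 4× images gave relative viability as treated counts over vehicle counts, reported as the median of duplicate plates.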

[2] = compound: CCN1CCN(c2ccc(Nc3cc(N(C)C(=O)Nc4c(Cl)c(OC)cc(OC)c4Cl)ncn3)cc2)CC1 [BGJ398] + CC(=O)c1c(C)c2cnc(Nc3ccc(N4CCNCC4)cn3)nc2n(C2CCCC2)c1=O [Palbociclib] (partner 0.5 µM)
How it was run: as §1

[3] = compound: CCN1CCN(c2ccc(Nc3cc(N(C)C(=O)Nc4c(Cl)c(OC)cc(OC)c4Cl)ncn3)cc2)CC1 [BGJ398] + CC1(C)CCC(c2ccc(Cl)cc2)=C(CN2CCN(c3ccc(C(=O)NS(=O)(=O)c4ccc(N[C@H](CCN5CCOCC5)CSc5ccccc5)c(S(=O)(=O)C(F)(F)F)c4)cc3)CC2)C1 [Navitoclax] (partner 0.5 µM)
How it was run: as §1

[4] = compound: CCN1CCN(c2ccc(Nc3cc(N(C)C(=O)Nc4c(Cl)c(OC)cc(OC)c4Cl)ncn3)cc2)CC1 [BGJ398] + C[C@]1(O)C[C@@H](c2nc(-c3ccc4ccc(-c5ccccc5)nc4c3)c3c(N)nccn32)C1 [Linsitinib] (partner 1 µM)
How it was run: as §1

| Cell Line | relative viability ([1]; first compound 0.02 µM) | relative viability ([1]; first compound 0.06325 µM) | relative viability ([1]; first compound 0.2 µM) | relative viability ([1]; first compound 0.6325 µM) | relative viability ([1]; first compound 2 µM) | relative viability ([2]; first compound 0.01 µM) | relative viability ([2]; first compound 0.03162 µM) | relative viability ([2]; first compound 0.1 µM) | relative viability ([2]; first compound 0.3162 µM) | relative viability ([2]; first compound 1 µM) | relative viability ([3]; first compound 0.01 µM) | relative viability ([3]; first compound 0.03162 µM) | relative viability ([3]; first compound 0.1 µM) | relative viability ([3]; first compound 0.3162 µM) | relative viability ([3]; first compound 1 µM) | relative viability ([4]; first compound 0.01 µM) | relative viability ([4]; first compound 0.03162 µM) | relative viability ([4]; first compound 0.1 µM) | relative viability ([4]; first compound 0.3162 µM) | relative viability ([4]; first compound 1 µM) |
| --- | --- | --- | --- | --- | --- | --- | --- | --- | --- | --- | --- | --- | --- | --- | --- | --- | --- | --- | --- | --- |
| NCI-H1975 | 0.804 | 0.917 | 0.759 | 0.712 | 0.708 | 0.575 | 0.678 | 0.672 | 0.546 | 0.417 | 1.11 | 1.09 | 1.12 | 1.19 | 1.05 | 1.08 | 1.07 | 1.11 | 1.03 | 0.965 |
| CAL-12T | 0.289 | 0.383 | 0.346 | 0.313 | 0.331 | 0.44 | 0.504 | 0.516 | 0.49 | 0.352 | 1.12 | 1.38 | 1.37 | 1.08 | 1.13 | 0.774 | 0.782 | 0.882 | 0.773 | 0.756 |
| NCI-H1623 | 0.405 | 0.413 | 0.473 | 0.403 | 0.38 | – | – | – | – | – | – | – | – | – | – | – | – | – | – | – |
| HCC-44 | 0.896 | 0.875 | 0.947 | 0.874 | 0.605 | 0.919 | 0.962 | 1.03 | 1.02 | 0.856 | 0.797 | 0.91 | 1.13 | 1.06 | 0.866 | 0.63 | 0.616 | 0.7 | 0.76 | 0.629 |
| EKVX | 0.423 | 0.321 | 0.38 | 0.449 | 0.352 | 0.436 | 0.291 | 0.384 | 0.359 | 0.394 | 0.896 | 1.02 | 1.16 | 0.874 | 0.992 | 0.776 | 0.859 | 1.17 | 1.05 | 1.05 |
| NCI-H1651 | 0.827 | 0.62 | 0.664 | 0.608 | 0.61 | 0.507 | 0.561 | 0.554 | 0.54 | 0.498 | 0.988 | 1.18 | 0.978 | 0.961 | 0.991 | 0.874 | 0.938 | 1.05 | 1.04 | 0.895 |
| NCI-H1944 | 0.254 | 0.206 | 0.261 | 0.239 | 0.238 | 0.29 | 0.333 | 0.347 | 0.337 | 0.344 | 0.986 | 1.05 | 1.08 | 0.884 | 1.05 | 1.17 | 1.22 | 1.28 | 1.2 | 1.28 |
| NCI-H1703 | – | – | – | – | – | – | – | – | – | – | 0.823 | 1.39 | 0.989 | 1.14 | 0.964 | 0.811 | 0.497 | 0.699 | 0.569 | 0.705 |
| Calu-6 | – | – | – | – | – | – | – | – | – | – | 0.794 | 0.838 | 0.796 | 0.788 | 0.795 | 0.932 | 0.969 | 0.901 | 0.922 | 0.952 |
| EBC-1 | – | – | – | – | – | – | – | – | – | – | 0.467 | 0.526 | 0.444 | 0.447 | 0.396 | 0.875 | 0.968 | 0.941 | 0.877 | 0.703 |
| SW 1573 | 0.192 | 0.201 | 0.183 | 0.183 | 0.204 | 0.399 | 0.419 | 0.402 | 0.423 | 0.404 | 0.82 | 1.22 | 1.05 | 0.981 | 0.91 | 0.859 | 0.894 | 0.886 | 0.812 | 0.933 |
| A-427 | 0.209 | 0.241 | 0.198 | 0.198 | 0.228 | 0.524 | 0.488 | 0.49 | 0.435 | 0.393 | 0.978 | 0.92 | 0.914 | 0.67 | 0.624 | 1.12 | 1.15 | 1.15 | 0.884 | 0.799 |
| NCI-H2347 | 0.553 | 0.554 | 0.546 | 0.633 | 0.601 | 0.427 | 0.467 | 0.477 | 0.47 | 0.422 | 0.671 | 0.939 | 0.828 | 0.835 | 0.777 | 0.989 | 1.08 | 0.975 | 0.968 | 1 |
| NCI-H1355 | 0.515 | 0.427 | 0.556 | 0.568 | 0.468 | 0.417 | 0.402 | 0.376 | 0.389 | 0.386 | 0.955 | 0.92 | 0.996 | 0.914 | 0.825 | 0.741 | 0.807 | 0.827 | 0.779 | 0.823 |
| NCI-H358 | 0.1 | 0.11 | 0.0984 | 0.127 | 0.0886 | 0.139 | 0.145 | 0.133 | 0.13 | 0.145 | – | – | – | – | – | 0.631 | 0.714 | 0.724 | 0.707 | 0.848 |
